Results: patent publication US8138194B2, “Fused bicyclic pyrimidine compounds as aurora kinase inhibitors” (National Health Research Institutes, priority 2008, dated 2012)
Where “and” joins values, the source holds several entries; their conditions need not be identical. Equal entries are not always repeated.

Biological target: T1, GST-tAurora A (123-401aa) fusion protein (Homo sapiens, UniProt O14965)
T1 construct: GST-tAurora A (123-401aa) fusion protein; made in house; host or cells: Sf9 insect cells (baculovirus, pBacPAK8)
T1 sequence (O14965 123-401): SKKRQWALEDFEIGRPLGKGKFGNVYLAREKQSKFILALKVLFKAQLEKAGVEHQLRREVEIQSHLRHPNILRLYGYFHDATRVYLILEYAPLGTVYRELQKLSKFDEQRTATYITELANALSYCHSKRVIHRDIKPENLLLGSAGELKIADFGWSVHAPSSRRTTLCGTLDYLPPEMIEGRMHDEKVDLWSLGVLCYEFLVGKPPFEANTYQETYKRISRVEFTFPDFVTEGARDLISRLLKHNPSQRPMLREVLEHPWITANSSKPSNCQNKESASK
Assay: Aurora Kinase A luminescent kinase assay
Assay type: biochemical
Conditions: IC50 (concentration of a test compound at which activity of 50% of Aurora A is inhibited)
Protocol: The Aurora A catalytic domain with an N-terminal GST tag was constructed in pBacPAK8 plasmid and expressed in sf9 cells. […] To concentrate GST-tAurora A, buffer was replaced with Tris buffer (100 mM Tris (pH 7.5), 300 mM NaCl, 1 mM EDTA, 4 mM DTT) using Amicon ultra-15 (MWCO:30K, Millipore) to 2.4 mg/ml. After the addition of equal volume of glycerol and 0.04% Triton X-100, the proteins were stored aliquoted at −80° C.
Briefly, a test compound, enzyme, substrate-tetra(LRRWSLG), DTT and ATP were dissolved in Aur buffer (50 mM Tris-HCl pH 7.4, 10 mM NaCl, 10 mM MgCl2, and 100 μg/ml BSA) individually before the assay. […] 5 μM ATP (5 μl), 1 mM DTT (5 μl) and 0.1 mM tetra(LRRWSLG) peptide substrate (5 μl) were added into the reactions of test compounds and GST-tAurora A. The reactions were incubated at 37° C. for 90 min. 50 μl of Kinase-Glo Plus Reagent (V3771, Promega) was added into the reactions, followed by the incubation at 25° C. for 20 min.

Row | Structure (SMILES) | IC50
1 | Nc1ccc(CNc2ncnc3oc(-c4ccccc4)c(-c4ccccc4)c23)cc1 [Compound 1, N-(4-aminobenzyl)-5,6-diphenylfuro[2,3-d]pyrimidin-4-amine] | < 1000 nM
2 | Nc1ccc(CCNc2ncnc3oc(-c4ccccc4)c(-c4ccccc4)c23)cc1 [Compound 3, N-(4-aminophenethyl)-5,6-diphenylfuro[2,3-d]pyrimidin-4-amine] | < 1000 nM
3 | Oc1ccc(CCNc2ncnc3oc(-c4ccccc4)c(-c4ccccc4)c23)cc1 [Compound 4] | < 1000 nM
4 | O=C(Nc1ccc(CCNc2ncnc3oc(-c4ccccc4)c(-c4ccccc4)c23)cc1)c1ccccc1 [Compound 5] | 45 to 400 nM and < 1000 nM
5 | NC(=O)Nc1ccc(CCNc2ncnc3oc(-c4ccccc4)c(-c4ccccc4)c23)cc1 [Compound 7] | < 1000 nM
6 | CNC(=O)Nc1ccc(CCNc2ncnc3oc(-c4ccccc4)c(-c4ccccc4)c23)cc1 [Compound 8] | 45 to 400 nM and < 1000 nM
7 | CN(C)C(=O)Nc1ccc(CCNc2ncnc3oc(-c4ccccc4)c(-c4ccccc4)c23)cc1 [Compound 9] | 45 to 400 nM and < 1000 nM
8 | O=C(NCc1ccccc1)Nc1ccc(CCNc2ncnc3oc(-c4ccccc4)c(-c4ccccc4)c23)cc1 [Compound 10] | 45 to 400 nM and < 1000 nM
9 | S=C(Nc1ccccc1)Nc1ccc(CCNc2ncnc3oc(-c4ccccc4)c(-c4ccccc4)c23)cc1 [Compound 13] | 45 to 400 nM and < 1000 nM
10 | O=C(Nc1ccc(CCNc2ncnc3oc(-c4ccccc4)c(-c4ccccc4)c23)cc1)Nc1cccc(Cl)c1 [Compound 15] | 45 to 400 nM and < 1000 nM
11 | O=C(Nc1ccc(CCNc2ncnc3oc(-c4ccccc4)c(-c4ccccc4)c23)cc1)Nc1cccc(Br)c1 [Compound 16] | < 1000 nM
12 | O=C(Nc1ccc(CCNc2ncnc3oc(-c4ccccc4)c(-c4ccccc4)c23)cc1)Oc1ccccc1 [Compound 17] | 45 to 400 nM and < 1000 nM
13 | O=C(Nc1ccccc1)Oc1ccc(CCNc2ncnc3oc(-c4ccccc4)c(-c4ccccc4)c23)cc1 [Compound 18] | 45 to 400 nM and < 1000 nM
14 | O=C(NCCCl)Nc1ccc(CCNc2ncnc3oc(-c4ccccc4)c(-c4ccccc4)c23)cc1 [Compound 19] | 45 to 400 nM and < 1000 nM
15 | O=C(NCCN1CCOCC1)Nc1ccc(CCNc2ncnc3oc(-c4ccccc4)c(-c4ccccc4)c23)cc1 [Compound 20] | 45 to 400 nM and < 1000 nM
16 | O=C(Nc1ccc(CCNc2ncnc3oc(-c4ccccc4)c(-c4ccccc4)c23)cc1)N1CCN(c2ccc(F)cc2)CC1 [Compound 22] | < 1000 nM
17 | Nc1ccc(CCOc2ncnc3oc(-c4ccccc4)c(-c4ccccc4)c23)cc1 [Compound 26] | < 1000 nM
18 | O=C(Nc1ccccc1)Nc1ccc(CCOc2ncnc3oc(-c4ccccc4)c(-c4ccccc4)c23)cc1 [Compound 27] | 45 to 400 nM and < 1000 nM
19 | Cc1cccc(NC(=O)Nc2ccc(CCNc3ncnc4oc(-c5ccccc5)c(-c5ccccc5)c34)cc2)c1 [Compound 28] | 45 to 400 nM and < 1000 nM
20 | O=C(Nc1ccc(CCNc2ncnc3oc(-c4ccccc4)c(-c4ccccc4)c23)cc1)Nc1cccc(C(F)(F)F)c1 [Compound 29] | 45 to 400 nM and < 1000 nM

Row | Structure (SMILES) | IC50
21 | N#Cc1cccc(NC(=O)Nc2ccc(CCNc3ncnc4oc(-c5ccccc5)c(-c5ccccc5)c34)cc2)c1 [Compound 30] | 45 to 400 nM and < 1000 nM
22 | CC(=O)c1cccc(NC(=O)Nc2ccc(CCNc3ncnc4oc(-c5ccccc5)c(-c5ccccc5)c34)cc2)c1 [Compound 31] | 45 to 400 nM and < 1000 nM
23 | O=C(Nc1ccc(CCNc2ncnc3oc(-c4ccccc4)c(-c4ccccc4)c23)cc1)Nc1cccc([N+](=O)[O-])c1 [Compound 32] | 45 to 400 nM and < 1000 nM
24 | O=C(Nc1ccc(CCNc2ncnc3oc(-c4ccccc4)c(-c4ccccc4)c23)cc1)N1CCN(CCO)CC1 [Compound 34] | < 1000 nM
25 | COc1cccc(NC(=O)Nc2ccc(CCNc3ncnc4oc(-c5ccccc5)c(-c5ccccc5)c34)cc2)c1 [Compound 40] | < 1000 nM
26 | O=C(Cc1ccccc1)Nc1ccc(CCNc2ncnc3oc(-c4ccccc4)c(-c4ccccc4)c23)cc1 [Compound 41] | 45 to 400 nM and < 1000 nM
27 | O=C(Nc1ccc(CCNc2ncnc3oc(-c4ccccc4)c(-c4ccccc4)c23)cc1)NN1CCCCC1 [Compound 45] | < 1000 nM and 45 to 400 nM
28 | COC(=O)C(Cc1ccc(NC(=O)Nc2ccccc2)cc1)Nc1ncnc2oc(-c3ccccc3)c(-c3ccccc3)c12 (stereo not drawn) [Compound 52] | < 1000 nM and 45 to 400 nM
29 | COc1ccc(-c2c(-c3ccccc3)oc3ncnc(NCCc4ccc(NC(=O)Nc5ccccc5)cc4)c23)cc1 [Compound 56] | 45 to 400 nM and < 1000 nM
30 | COc1cccc(-c2c(-c3ccccc3)oc3ncnc(NCCc4ccc(NC(=O)Nc5ccccc5)cc4)c23)c1 [Compound 59] | 45 to 400 nM and < 1000 nM
31 | O=C(Nc1ccc(CCNc2ncnc3oc(-c4ccccc4)c(-c4ccccc4)c23)cc1)Nc1ccc(F)c(F)c1 [Compound 62] | 45 to 400 nM and < 1000 nM
32 | O=C(Nc1ccc(CCNc2ncnc3oc(-c4ccccc4)c(-c4ccccc4)c23)cc1)Nc1cc(F)cc(F)c1 [Compound 63] | 45 to 400 nM and < 1000 nM
33 | CC(=O)Nc1cccc(NC(=O)Nc2ccc(CCNc3ncnc4oc(-c5ccccc5)c(-c5ccccc5)c34)cc2)c1 [Compound 64] | < 1000 nM
34 | COc1ccc(-c2oc3ncnc(NCCc4ccc(NC(=O)Nc5ccccc5)cc4)c3c2-c2ccc(O)cc2)cc1 [Compound 66] | 45 to 400 nM and < 1000 nM
35 | CCCNC(=O)Nc1ccc(CCNc2ncnc3oc(-c4ccccc4)c(-c4ccccc4)c23)cc1 [Compound 67] | 45 to 400 nM and < 1000 nM
36 | CCCCCNC(=O)Nc1ccc(CCNc2ncnc3oc(-c4ccccc4)c(-c4ccccc4)c23)cc1 [Compound 68] | < 1000 nM
37 | CCCCCCNC(=O)Nc1ccc(CCNc2ncnc3oc(-c4ccccc4)c(-c4ccccc4)c23)cc1 [Compound 69] | < 1000 nM
38 | O=C(Nc1ccc(CCNc2ncnc3oc(-c4ccccc4)c(-c4ccccc4)c23)cc1)NC1CCCC1 [Compound 70] | 45 to 400 nM and < 1000 nM
39 | O=C(Nc1ccc(CCNc2ncnc3oc(-c4ccccc4)c(-c4ccccc4)c23)cc1)NC1CCCCC1 [Compound 71] | 45 to 400 nM and < 1000 nM
40 | COc1ccc(NC(=O)Nc2ccc(CCNc3ncnc4oc(-c5ccccc5)c(-c5ccccc5)c34)cc2)cc1 [Compound 72] | < 1000 nM

Row | Structure (SMILES) | IC50
41 | O=C(Nc1ccc(CCNc2ncnc3oc(-c4ccccc4)c(-c4ccccc4)c23)cc1)Nc1ccc2c(c1)OCO2 [Compound 73] | 45 to 400 nM and < 1000 nM
42 | S=C(Nc1ccc(CCNc2ncnc3oc(-c4ccccc4)c(-c4ccccc4)c23)cc1)Oc1ccccc1 [Compound 74] | < 1000 nM
43 | N#C/N=C(\Nc1ccccc1)Nc1ccc(CCNc2ncnc3oc(-c4ccccc4)c(-c4ccccc4)c23)cc1 [Compound 75] | < 1000 nM
44 | O=Cc1ccc(-c2c(-c3ccccc3)oc3ncnc(NCCc4ccc(NC(=O)Nc5ccccc5)cc4)c23)o1 [Compound 76] | 45 to 400 nM and < 1000 nM
45 | O=C(Nc1ccccc1)Nc1ccc(CCNc2ncnc3oc(-c4ccccc4)c(-c4ccc([N+](=O)[O-])cc4)c23)cc1 [Compound 77] | 45 to 400 nM and < 1000 nM
46 | O=C(Nc1ccccc1)Nc1ccc(CCNc2ncnc3oc(-c4ccccc4)c(-c4cccc(O)c4)c23)cc1 [Compound 78] | 45 to 400 nM and < 1000 nM
47 | C[Si](C)(C)C#Cc1c(-c2ccccc2)oc2ncnc(NCCc3ccc(NC(=O)Nc4ccccc4)cc3)c12 [Compound 81] | < 1000 nM
48 | O=C(Nc1ccc(CCNc2ncnc3oc(-c4ccccc4)c(-c4ccccc4)c23)cc1)Nc1cccc(F)c1F [Compound 91] | 45 to 400 nM and < 1000 nM
49 | O=C(Nc1ccc(CCNc2ncnc3oc(-c4ccccc4)c(-c4ccccc4)c23)cc1)Nc1c(F)cccc1F [Compound 94] | < 1000 nM
50 | COc1ccc(NC(=O)Nc2ccc(CCNc3ncnc4oc(-c5ccccc5)c(-c5ccccc5)c34)cc2)cc1OC [Compound 95] | < 1000 nM
51 | O=C(Nc1ccc(CCNc2ncnc3oc(-c4ccccc4)c(-c4ccccc4)c23)cc1)Nc1ccccc1[N+](=O)[O-] [Compound 97] | 45 to 400 nM and < 1000 nM
52 | Cc1ccc(NC(=O)Nc2ccc(CCNc3ncnc4oc(-c5ccccc5)c(-c5ccccc5)c34)cc2)cc1 [Compound 98] | 45 to 400 nM and < 1000 nM
53 | CN(C)c1ccc(NC(=O)Nc2ccc(CCNc3ncnc4oc(-c5ccccc5)c(-c5ccccc5)c34)cc2)cc1 [Compound 100] | < 1000 nM
54 | CCOC(=O)c1c(-c2ccccc2)oc2ncnc(NCCc3ccc(NC(=O)Nc4ccccc4)cc3)c12 [Compound 107] | < 1000 nM
55 | CN1CCN(Cc2ccc(NC(=O)Nc3ccc(CCNc4ncnc5oc(-c6ccccc6)c(-c6ccccc6)c45)cc3)cc2)CC1 [Compound 118] | < 1000 nM
56 | CN(C)Cc1cccc(NC(=O)Nc2ccc(CCNc3ncnc4oc(-c5ccccc5)c(-c5ccccc5)c34)cc2)c1 [Compound 119] | < 1000 nM and 45 to 400 nM
57 | CN1CCN(Cc2cccc(NC(=O)Nc3ccc(CCNc4ncnc5oc(-c6ccccc6)c(-c6ccccc6)c45)cc3)c2)CC1 [Compound 122] | < 1000 nM
58 | O=C(Nc1ccc(CCNc2ncnc3oc(-c4ccccc4)c(-c4ccccc4)c23)cc1)Nc1ccccc1CN1CCCCC1 [Compound 124] | < 1000 nM
59 | CN1CCN(Cc2ccccc2NC(=O)Nc2ccc(CCNc3ncnc4oc(-c5ccccc5)c(-c5ccccc5)c34)cc2)CC1 [Compound 126] | < 1000 nM
60 | O=C(Nc1ccc(CCNc2ncnc3oc(-c4ccccc4)c(-c4ccccc4)c23)cc1)Nc1ccccn1 [Compound 146] | 45 to 400 nM and < 1000 nM
